molecular target: HDAC2 (Homo sapiens, UniProt Q92769); assay: HDAC2 fluorescence inhibition assay (tBoc-Lys(Ac)-AMC)
Sequence (Q92769 with tags, fused parts or gaps): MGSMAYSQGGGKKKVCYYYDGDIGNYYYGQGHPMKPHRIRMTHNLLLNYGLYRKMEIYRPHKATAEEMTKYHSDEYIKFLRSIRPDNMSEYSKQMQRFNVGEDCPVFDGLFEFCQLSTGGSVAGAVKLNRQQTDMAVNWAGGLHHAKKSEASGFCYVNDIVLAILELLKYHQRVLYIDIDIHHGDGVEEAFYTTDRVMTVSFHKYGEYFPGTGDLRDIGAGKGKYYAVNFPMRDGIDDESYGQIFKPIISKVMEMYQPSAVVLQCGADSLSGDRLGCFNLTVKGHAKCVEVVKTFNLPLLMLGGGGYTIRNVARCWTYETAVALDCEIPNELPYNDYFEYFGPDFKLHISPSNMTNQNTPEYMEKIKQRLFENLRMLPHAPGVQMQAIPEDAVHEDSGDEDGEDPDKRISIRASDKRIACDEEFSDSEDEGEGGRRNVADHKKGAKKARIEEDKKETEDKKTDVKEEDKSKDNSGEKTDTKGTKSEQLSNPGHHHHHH

Compound	IC50 [nM]
Nc1ccccc1NC(=O)c1ccc(Cn2ncc3ccccc32)cc1 [Example 1, 4-((1H-indazol-1-yl)methyl)-N-(2-aminophenyl)benzamide]	≤ 50
Nc1ccccc1NC(=O)c1ccc(Cn2cc3c(F)cc(F)cc3n2)cc1 [Example 45, N-(2-aminophenyl)-4-((4,6-difluoro-2H-indazol-2-yl)methyl)benzamide]	50 to 100
Nc1ccccc1NC(=O)c1ccc(Cn2cc(C(=O)NCc3ccccn3)cn2)cc1 [Example 126, 1-(4-(2-aminophenylcarbamoyl)benzyl)-N-(pyridin-2-ylmethyl)-1H-pyrazole-4-carboxamide]	≤ 50
Nc1ccccc1NC(=O)c1ccc(CCn2ncc3ccccc32)cc1 [Example 40, 4-(2-(1H-indazol-1-yl)ethyl)-N-(2-aminophenyl)benzamide]	100 to 500
COc1ccc2nn(Cc3ccc(C(=O)Nc4ccccc4N)cc3)cc2c1 [Example 79, N-(2-aminophenyl)-4-((5-methoxy-2H-indazol-2-yl)methyl)benzamide]	≤ 50
Nc1ccccc1NC(=O)c1ccc(Cn2cc3c(n2)CCCC3)cc1 [Example 129, N-(2-aminophenyl)-4-((4,5,6,7-tetrahydro-2H-indazol-2-yl)methyl)benzamide]	50 to 100
Nc1ccc(-c2ccccc2)cc1NC(=O)c1ccc(Cn2cc3ccccc3n2)cc1 [Example 27, N-(4-Amino-biphenyl-3-yl)-4-indazol-2-ylmethyl-benzamide]	≤ 50
Cc1c2cc(C(F)(F)F)ccc2nn1Cc1ccc(C(=O)Nc2ccccc2N)cc1 [Example 95, N-(2-aminophenyl)-4-((3-methyl-5-(trifluoromethyl)-2H-indazol-2-yl)methyl)benzamide]	≤ 50
Nc1ccc2c(cnn2Cc2ccc(C(=O)Nc3ccccc3N)cc2)c1 [Example 7, 4-((5-amino-1H-indazol-1-yl)methyl)-N-(2-aminophenyl)benzamide]	≤ 50
CC(=O)Nc1ccc2c(cnn2Cc2ccc(C(=O)Nc3ccccc3N)s2)c1 [Example 110, 5-((5-acetamido-1H-indazol-1-yl)methyl)-N-(2-aminophenyl)thiophene-2-carboxamide]	50 to 100
Nc1ccccc1NC(=O)c1ccc(Cn2cc(C(=O)NCCN3CCNCC3)cn2)cc1 [Example 103, 1-(4-(2-aminophenylcarbamoyl)benzyl)-N-(2-(piperazin-1-yl)ethyl)-1H-pyrazole-4-carboxamide]	≤ 50
Nc1ccccc1NC(=O)c1ccc(Cn2cc(C(=O)NCCCN3CCOCC3)cn2)cc1 [Example 154, 1-(4-(2-aminophenylcarbamoyl)benzyl)-N-(3-morpholinopropyl)-1H-pyrazole-4-carboxamide]	≤ 50
Nc1ccccc1NC(=O)c1ccc(Cn2cc3ccccc3n2)cc1 [Example 2, 4-((2H-indazol-2-yl)methyl)-N-(2-aminophenyl)benzamide]	50 to 100
Nc1ccccc1NC(=O)c1ccc(Cn2cc(C(=O)O)cn2)cc1 [Example 122, 1-(4-(2-aminophenylcarbamoyl)benzyl)-1H-pyrazole-4-carboxylic acid]	≥ 500
CC(=O)Nc1ccc2c(cnn2Cc2ccc(C(=O)Nc3ccccc3N)cc2)c1 [Example 3, 4-((5-acetamido-1H-indazol-1-yl)methyl)-N-(2-aminophenyl)benzamide]	≤ 50
Nc1ccccc1NC(=O)c1ccc(Cn2nc(-c3ccccc3)c3ccccc32)cc1 [Example 76, N-(2-aminophenyl)-4-((3-phenyl-1H-indazol-1-yl)methyl)benzamide]	50 to 100
Nc1ccccc1NC(=O)c1ccc(Cn2cc(C(=O)NC3CC3)cn2)cc1 [Example 138, 1-(4-(2-aminophenylcarbamoyl)benzyl)-N-cyclopropyl-1H-pyrazole-4-carboxamide]	50 to 100
Cc1c2cc(F)c(F)cc2nn1Cc1ccc(C(=O)Nc2ccccc2N)cc1 [Example 57, N-(2-aminophenyl)-4-((5,6-difluoro-3-methyl-2H-indazol-2-yl)methyl)benzamide]	50 to 100
COc1ccc2c(C)nn(Cc3ccc(C(=O)Nc4cc(-c5cccs5)ccc4N)cc3)c2c1 [Example 114, N-(2-amino-5-(thiophen-2-yl)phenyl)-4-((6-methoxy-3-methyl-1H-indazol-1-yl)methyl)benzamide]	50 to 100
CN(C)C(=O)c1cnn(Cc2ccc(C(=O)Nc3ccccc3N)cc2)c1 [Example 136, 1-(4-(2-aminophenylcarbamoyl)benzyl)-N,N-dimethyl-1H-pyrazole-4-carboxamide]	100 to 500
CC(C)CNC(=O)c1cnn(Cc2ccc(C(=O)Nc3ccccc3N)cc2)c1 [Example 150, 1-(4-(2-aminophenylcarbamoyl)benzyl)-N-isobutyl-1H-pyrazole-4-carboxamide]	≤ 50
Cc1nn(Cc2ccc(C(=O)Nc3ccccc3N)cc2)c2ccccc12 [Example 28, N-(2-Aminophenyl)-4-((3-methyl-1H-indazol-1-yl)methyl)benzamide]	50 to 100
Nc1ccccc1NC(=O)c1ccc(Cn2ncc3cc(NC(=O)N4CCOCC4)ccc32)cc1 [Example 21, N-(1-(4-((2-Aminophenyl)carbamoyl)benzyl)-1H-indazol-5-yl)morpholine-4-carboxamide]	≤ 50

Compound	IC50 [nM]
Nc1ccccc1NC(=O)c1ccc(Cn2ncc3cc([N+](=O)[O-])ccc32)cc1 [Example 5, N-(2-aminophenyl)-4-((5-nitro-1H-indazol-1-yl)methyl)benzamide]	≤ 50
Nc1ccccc1NC(=O)c1ccc(Cn2nc(N)c3cc(C(F)(F)F)ccc32)cc1 [Example 63, 4-((3-amino-5-(trifluoromethyl)-1H-indazol-1-yl)methyl)-N-(2-aminophenyl)benzamide]	50 to 100
Cc1nn(Cc2ccc(C(=O)Nc3ccccc3N)cc2)c2ccc(F)cc12 [Example 70, N-(2-aminophenyl)-4-((5-fluoro-3-methyl-1H-indazol-1-yl)methyl)benzamide]	100 to 500
COc1ccc2c(cnn2Cc2ccc(C(=O)Nc3ccccc3N)cc2)c1 [Example 78, N-(2-aminophenyl)-4-((5-methoxy-1H-indazol-1-yl)methyl)benzamide]	≤ 50
Cc1cnn(Cc2ccc(C(=O)Nc3cc(-c4cccs4)ccc3N)cc2)c1 [Example 115, N-(2-amino-5-(thiophen-2-yl)phenyl)-4-((4-methyl-1H-pyrazol-1-yl)methyl)benzamide]	≤ 50
Nc1ccccc1NC(=O)c1ccc(Cn2ncc3cc(NC(=O)c4ccccc4)ccc32)cc1 [Example 6, 4-((5-benzamido-1H-indazol-1-yl)methyl)-N-(2-aminophenyl)benzamide]	≤ 50
Nc1ccccc1NC(=O)c1ccc(Cn2ncc3c(C(F)(F)F)cccc32)cc1 [Example 117, N-(2-aminophenyl)-4-((4-(trifluoromethyl)-1H-indazol-1-yl)methyl)benzamide]	50 to 100
Nc1ccccc1NC(=O)c1ccc(Cn2cccn2)cc1 [Example 31, 4-((1H-pyrazol-1-yl)methyl)-N-(2-aminophenyl)benzamide]	≥ 500
Nc1ccccc1NC(=O)c1ccc(Cc2c[nH]c3ccccc23)cc1 [Example 158, 4-((1H-Indol-3-yl)methyl)-N-(2-aminophenyl)benzamide]	50 to 100
Nc1ccccc1NC(=O)c1ccc(Cn2nc3ccccc3n2)cc1 [Example 101, 4-((2H-benzo[d][1,2,3]triazol-2-yl)methyl)-N-(2-aminophenyl)benzamide]	50 to 100
Nc1ccccc1NC(=O)c1ccc(Cn2ncc3ccc(F)cc32)cc1 [Example 36, N-(2-aminophenyl)-4-((6-fluoro-1H-indazol-1-yl)methyl)benzamide]	50 to 100
Nc1ccccc1NC(=O)c1ccc(Cn2cc(C(=O)NCc3ccccc3)cn2)cc1 [Example 128, 1-(4-(2-aminophenylcarbamoyl)benzyl)-N-benzyl-1H-pyrazole-4-carboxamide]	≤ 50
COc1cccc2cn(Cc3ccc(C(=O)Nc4ccccc4N)cc3)nc12 [Example 82, N-(2-aminophenyl)-4-((7-methoxy-2H-indazol-2-yl)methyl)benzamide]	50 to 100
COc1cc2cnn(Cc3ccc(C(=O)Nc4ccccc4N)cc3)c2cc1OC [Example 99, N-(2-aminophenyl)-4-((5,6-dimethoxy-1H-indazol-1-yl)methyl)benzamide]	≤ 50
Nc1ccccc1NC(=O)c1ccc(Cn2cc3c(Cl)cccc3n2)cc1 [Example 43, N-(2-aminophenyl)-4-((4-chloro-2H-indazol-2-yl)methyl)benzamide]	≤ 50
Nc1ccccc1NC(=O)c1ccc(Cn2cc(C(=O)NCCN3CCCCC3)cn2)cc1 [Example 155, 1-(4-(2-aminophenylcarbamoyl)benzyl)-N-(2-(piperidin-1-yl)ethyl)-1H-pyrazole-4-carboxamide]	≤ 50
COC(=O)Nc1ccc2nn(Cc3ccc(C(=O)Nc4ccccc4N)cc3)cc2c1 [Example 12, Methyl 2-(4-((2-aminophenyl)carbamoyl)benzyl)-2H-indazol-5-ylcarbamate]	≤ 50
Nc1ccccc1NC(=O)c1ccc(Cn2cc3c(C(F)(F)F)cccc3n2)cc1 [Example 118, N-(2-aminophenyl)-4-((4-(trifluoromethyl)-2H-indazol-2-yl)methyl)benzamide]	50 to 100
Nc1ccccc1NC(=O)c1ccc(Cn2ncc3c(F)cccc32)cc1 [Example 48, N-(2-aminophenyl)-4-((4-fluoro-1H-indazol-1-yl)methyl)benzamide]	50 to 100
CC(=O)Nc1ccc2cnn(Cc3ccc(C(=O)Nc4ccccc4N)cc3)c2c1 [Example 89, 4-((6-acetamido-1H-indazol-1-yl)methyl)-N-(2-aminophenyl)benzamide]	≤ 50
Nc1ccccc1NC(=O)c1ccc(Cn2cc3cc(NC(=O)c4ccccc4)ccc3n2)cc1 [Example 10, 4-((5-benzamido-2H-indazol-1-yl)methyl)-N-(2-aminophenyl)benzamide]	≤ 50
Nc1ccccc1NC(=O)c1ccc(Cn2cc3cccc(F)c3n2)cc1 [Example 47, N-(2-aminophenyl)-4-((7-fluoro-2H-indazol-2-yl)methyl)benzamide]	50 to 100
Nc1ccccc1NC(=O)c1ccc(Cn2nccc2N)cc1 [Example 132, 4-((5-amino-1H-pyrazol-1-yl)methyl)-N-(2-aminophenyl)benzamide]	≥ 500
